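Results reflect a 48-hour exposure of cells in 96-well plates to compound at five concentrations. GI50 marks 50% less growth. TGI: total growth inhibition.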
How the values were obtained:
Experiment in all cases: DTP human tumour cell line panel, 48 h
[1] = test system: BT-549 breast
[2] = test system: SNB-19 CNS
[3] = test system: UACC-257 melanoma
[4] = test system: EKVX NSCLC
[5] = test system: COLO 205 colon
[6] = test system: SN12C renal
[7] = test system: A498 renal
[8] = test system: SF-268 CNS
[9] = test system: NCI-H23 lung
[10] = test system: SF-539 CNS

SMILES | TGI [1] [µM] | TGI [2] [µM] | TGI [3] [µM] | TGI [4] [µM] | TGI [5] [µM] | TGI [6] [µM] | TGI [7] [µM] | TGI [8] [µM] | TGI [9] [µM] | GI50 [1] [µM] | GI50 [2] [µM] | GI50 [3] [µM] | GI50 [5] [µM] | GI50 [6] [µM] | GI50 [7] [µM] | GI50 [8] [µM] | GI50 [9] [µM] | GI50 [10] [µM] | TGI [10] [µM] | GI50 [4] [µM]
CC(=O)NC(Cc1c[nH]c2ccccc12)C(=O)O (stereo not given) | > 100 | > 100 | > 100 | > 100 | > 100 | > 100 | > 100 | > 100 | > 100 | – | – | – | – | – | – | – | – | – | – | –
O=C(Nc1cccc(-c2nc3ccccc3[nH]2)c1)c1cccc(NC(=O)c2ccco2)c1 | 3.92 | 8.19 | 5.34 | – | 10.6 | 4.88 | 18.3 | 3.78 | 4.94 | 1.85 | 2.86 | 2.3 | 3.49 | 2.07 | 4.33 | 1.99 | 2.15 | 1.49 | 2.88 | –
COc1cc2c(cc1OCCCCCN1CCN(c3cc(=O)oc4c(C)c(OC)ccc34)CC1)N=C[C@@H]1CCCN1C2=O | 0.155 | 8.82 | – | 4.07 | 0.0849 | 0.0699 | 0.0289 | 0.318 | 0.137 | < 0.0119 | < 0.0143 | – | < 0.01 | < 0.01 | < 0.0127 | < 0.01 | < 0.0122 | < 0.0112 | 0.128 | 0.174
Cn1c(Cc2ccccc2)nc2cc3ccccc3cc21 | 45.3 | > 100 | 61.9 | 52.5 | > 100 | 39.1 | – | > 100 | > 100 | 21.2 | 39.3 | 26.8 | 37 | 18.7 | – | 34.7 | 43 | 20.6 | 37.4 | 22.2
C[C@@H](Oc1cc(-c2cnn(C3CC4(CCNCC4)C3)c2)cnc1N)c1c(F)ccc(Cl)c1Cl | 3.78 | 18.1 | 2.99 | – | 0.864 | 7.1 | 2.35 | 4.71 | 11.4 | 1.75 | 4.29 | 1.47 | 0.293 | 1.49 | 0.488 | 1.64 | 1.09 | 1.51 | 2.96 | –
CCC(=O)Nc1ccc2c(c1)CN1C(=O)c3ccccc3C1=N2 | > 100 | > 100 | > 100 | – | > 100 | > 100 | – | > 100 | > 100 | > 100 | > 100 | > 100 | > 100 | > 100 | – | > 100 | > 100 | > 100 | > 100 | –
COc1cc(N)ccc1Nc1c2ccccc2nc2ccccc12 | 32.4 | 38.1 | 44 | – | 18.4 | 24.9 | 22.4 | 35.3 | 45.2 | 15.3 | 15.9 | 20.2 | 5.55 | 7.73 | 6.28 | 14.2 | 15 | 12.1 | 26.5 | –

Source: PubChem BioAssay (NCI)
